A short description of this series: Liposome formation and sizing after extrusion. The series is classed as physicochemical. As to the method: Two mice studies have been performed for the evaluation of cationic lipids of the present invention, in comparison with DOTIM. In brief, the lipid combinations were tested as carriers for gene transfer by intravenous delivery in ICR female mice (25 g), and expression was determined using the plasmid p4119 containing the CAT reporter gene under the control of the HCMV promoter. The lipids were dissolved in a mixture of chloroform and methanol (1.1). Lipid films of cationic and neutral lipid at a 1:1 molar ratio were formed with a rotary evaporator. The films were hydrated with 5% dextrose in water (D5W) at room temperature and extruded through a series of membranes having pore sizes of 400 nm, 200 nm, and 50 nm.
DNA-liposome complexes were prepared at a 1:10 DNA:cationic lipid ratio (mg DNA per μmole cationic lipid) by adding the DNA, in a solution at 0.625 mg/mL concentration in D5W to the solution of liposomes, in an equal volume, with constant stirring, using a Hamilton Dilutor 540B (Hamilton, Reno, Nev.). The lipids used were MBN 246, 247, 248, 249, 250, 251 and 252 (FIG. 10). MBN 249 was used in a 1:10 ratio with cholesterol. MBN 250 was used in a 1:10 ratio with DLPE. The DNA solution was 0.3125 mg/mL DNA in D5W. […] Zeta potential was determined by a Zeta Plus, Zeta Potential Analyzer (Brookhaven Instruments Corp.).

For the substance “N,N-Dimethyl-N-(2,3-dihydroxypropanylo-N-(2,3-dioleyloxypropanyl)amonium Chloride [MBN305]”, the liposome formation result was “forms liposomes easily”.

Source of the values: patent publication US6649780B1, “Cationic lipids” (Valentis, Inc., priority 1998, dated 2003).
